Data reported in US6124281A, “Azolobenzazepine derivatives as neurologically active agents” (Zeneca Limited, priority 1998, dated 2000).
pIC50: −log10 of the molar value. Read-outs that look alike come from different tables or passages of the source.

Tests used:
[1] = test system: NMDA-induced excitatory response of red nucleus cells; test: Rat Red Nucleus Test; assay type: in vivo; conditions: iv
Method: The purpose of this test is to determine the effects of intravenously administered is glycine antagonists on the NMDA- induced excitatory response of red nucleus cells.
The procedure for the red nucleus test is as follows. Rats are anesthetized with chloral hydrate (400 mg/kg ip) and the femoral vein is catheterized for iv drug administration. Five-barrel micropipettes are stereotaxically positioned in the red nucleus. Typically, three to four of the five barrels are filled as follows: the recording barrel with 2M potassium citrate. the current balancing barrel with 4M NaCl, the drug barrel with 25 mM NMDA, and another drug barrel with 2.5 mM quisqualic acid (QA is only used in selectivity studies). NMDA is iontophoretically applied with an ejection current that is adjusted depending on the sensitivity of each individual red nucleus cell. The NMDA is cycled on and off (usually 30-60 sec. on and 60-120 sec. off) and the firing rate of the cell during each period is recorded. Once the baseline firing rate of the cell has been established, the test drug is administered iv. The inhibitory effect of the drug on the NMDA-induced excitatory response of the red nucleus cell can then be both qualitatively and quantitatively evaluated from the recordings and the raw data accumulated and the results are expressed as an ID50 value (The dose in mg/kg of the test drug which causes 50% inhibition).

[2] = target: T1, N-methyl-D-aspartate receptor (Rattus norvegicus, UniProt P35439); test: [3H]-glycine Binding Assay; parameters: species or system Sprague-Dawley rat; conditions: 20 nM [3H]-glycine, rat cortex and hippocampus synaptic membranes, pH 7.1, 30 minutes at 4° C.
T1 construct: Freshly dissected cortices and hippocampi are homogenized in 0.32M sucrose; from tissue; host or cells: cortices and hippocampi of adult male Sprague-Dawley rats, synaptic membranes
Method: [^3 H]-glycine Binding Assay
In the [^3 H]-glycine binding assay, neuronal synaptic membranes are prepared from adult (about 250 g) male Sprague-Dawley rats. Freshly dissected cortices and hippocampi are homogenized in 0.32M sucrose (110 mg/mL). Synaptosomes are isolated by centrifugation (1000×g, 10 minutes), the supernatant is pelleted (20,000×g, 20 minutes) resuspended in double-distilled water. The suspension was centrifuged for 20 minutes at 8,000×g. The resulting supernatant and buffy coat are washed twice (48,000×g, 10 minutes, resuspension in double-deionizedwater). The final pellet is quickly frozen (dry icelethanol bath) under double-deionized water and stored at -70° C.
On the day of the experiment, thawed synaptic membranes are homogenized with a Brinkmann Polytron (TM, Brinkmann Instruments, Westbury, N.Y.) tissue homogenizer in 50 mM tris(hydroxymethyl)aminomethane citrate, pH 7.1. The membranes are incubated with 0.04% Sufact-AMPS X100 (TM, Pierce, Rockford, Ill.) in buffer for 20 minutes at 37° C. and washed six times by centrifugation (48,000×g, 10 minutes) and resuspended in buffer. The final pellet is homogenized at 200 mg wet weight/mL of the buffer for the binding assay.
For [^3 H]-glycine binding at the N-methyl-D-aspartate receptor, 20 nM [^3 H]-glycine (40-60 Ci/mmol, New England Nuclear, Boston, Mass.) is incubated with the membranes suspended in 50 mM tris(hydroxymethyl)aminomethane citrate, pH 7.1 for 30 minutes at 4° C. Glycine, 1mM, is used to define the nonspecific binding. Bound [^3 H]-glycine is isolated from free using a Brandel (Biomedical Research and Development Laboratories, Gaithersburg, Md.) cell harvester for vacuum filtration over glass fiber filters (Whatman GFB from Brandel, Gaithersburg, Md.) presoaked in 0.025% polyethylenimine. The samples retained on the glass fiber filters are rinsed 3 times with a total of 2.5 mL ice cold buffer. Radioactivity is estimated by liquid scintillation counting. IC50 values are obtained from a least-squares regression of a logit-log transformation of the data.

infarcted cortex = test: Rat Middle Cerebral Artery Test; assay type: in vivo, SHR rat; conditions: intravenously, 10 mg/kg per hour over 4 hours; permanent MCA occlusion
Method: Rat Middle Cerebral Artery Test
Male SHR rats weight 280-320 g are used for these studies. The method used for permanent middle cerebral artery (MCA) occlusion is as described by Brint et al (1988). […] Following occlusions, drugs are administered intravenously via jugular catheter. Twenty-four hours after MCA/common carotid artery occlusion, the animals are sacrificed and their brains quickly removed. Coronal sections of 1 mm thickness are cut using a vibratome and stained with 2,3,5-triphenyl-2H-tetrazolium chloride (TTC) dye. Following staining, necrotic tissue is readily distinguished from the intact brain and the area of infarcted cortex can be traced on an image analyzer. The infarct volume for each section is quantified with an image analyzer, and the total infarct volume is calculated with a program that sums all interval volumes. See S. Brint et al. J. Cerebral Blood Flow 8:474-475 (1988). The statistical analysis of the difference between the volume of ischemic damage in the vehicle control and drug-treated animals is analyzed by Student's t-test. The results are expressed as the percent (%) change in infarct volume and are presented as the mean for animals.

[3] = test system: neuronal damage in the hippocampus; test: Gerbil Ischemic Model; assay type: in vivo, Mongolian gerbil; conditions: ip twice (pre- and post-occlusion), 20 mg/kg body weight
Method: Adult female Mongolian gerbils (50-70 g) are anesthetized with 2 to 3% halothane. The bilateral common carotid arteries at the neck are exposed and occluded with microaneurysm clips. After 10 min (unless specified), the clips are removed and the blood flow through the carotid arteries is restored and the skin is sutured. Test compounds are administered intraperitoneally both pre- and post-occlusion, for example 45 minutes before and 5 minutes after occlusion of the carotid arteries. Sham-operated animals are treated in the same manner except that the arteries are not clamped, gross behavioral observations along with motor activity are recorded for 2 hours on the first (24 hours) day following the occlusion. After 4 days, subjects are sacrificed (decapitation), brains are removed, fixed, sectioned and stained with hematoxylin/eosin and cresyl violet.
The brain sections are rated for neuronal damage in the hippocampus using the following rating scale:
1=slight damage (up to 25%)--restricted to CA1 subiculum border
2=moderate damage (up to 50%)--obvious damage, restricted to less than half of CA1 field […]
Sections (7 micron) are evaluated from each brain. […] The average brain damage rating score for each group is recorded, and the damage scores of the drug treated group are compared to the vehicle-treated group using Wilcoxcon-Rank Sum test. […]

[4] = NMDA-induced excitatory response, compounds of the invention, read-out: ID50 (dose of the test drug which causes 50% inhibition)

| Structure (SMILES) | ED50 [1, 4] [mg/kg] | pIC50 [2] | further results |
| --- | --- | --- | --- |
| NC1CCN(O)C1=O (stereo not shown) [HA-966, reference compound] |  |  | ED50 ([1]; reference agents, read-out: ID50 of reference agents shown to be active in this test): 7.9 mg/kg |
| C/C(=C\C(N)C(=O)O)CP(=O)(O)O (stereo not shown) [CGP 37849, reference compound] |  |  | ED50 ([1]; read-out: ID50 of reference agents shown to be active in this test): 1.7 mg/kg |
| CC(C)OC(=O)c1n[nH]c2c(=O)[nH]c3cc(Cl)ccc3c(=O)c12 [Example 18, 7-Chloro-3-(isopropoxycarbonyl)pyrazolo[3,4-c][1]benzazepine-4,10(1H,9H)-dione] | 3.5 | 7.19 | change in infarct volume (infarcted cortex): -19% |
| O=c1[nH]c2cc(Cl)ccc2c(=O)c2n[nH]nc12 [Example 48(d), 7-Chloro-1,2,3-triazolo[4,5-c][1]benzazepine-4,10(1H,9H)-dione] |  |  | neuroprotection [3]: 77% |
| CCCCOC(=O)c1n[nH]c2c(=O)[nH]c3cc(Cl)ccc3c(=O)c12 [Example 27, 3-butoxycarbonyl-7-chloropyrazolo[3,4c][1]benzazepine-4,10(1H,9H)-dione] | 5.7 | 6.64 |  |
| CCCOC(=O)c1n[nH]c2c(=O)[nH]c3cc(Cl)ccc3c(=O)c12 [Example 28, 3-propoxycarbonyl-7-chloropyrazolo[3,4-c][1]benzazepine-4,10(1H,9H)-dione] | 4.6 | 7.57 |  |
